# Experimental data taken from patent publication US8877736B2, “Method for treating keloid by administering 3′sialyllactose or 6′sialyllactose as a pharmaceutical or cosmetic” (Benebiosis Co., Ltd., priority 2009, dated 2014).
# Entries after “also recorded” stand apart in the source; their conditions may differ.
# What was measured:
# Format in all cases: cell-based
# RAW 264.7 cells = experiment: Cytotoxicity analysis, MTT assay on RAW 264.7 cells; conditions: 0.001, 0.01, 0.1 and 1 mM, 5 days, compared with negative control (PBS), FIGS. 4a-4b
# Procedure: Cytotoxicity of sialyllactose to cells other than keloid fibroblasts was analyzed RAW 264.7 cells (TIB-71) were purchased from ATCC. Dulbecco's Modified Eagle's Medium (DMEM) was purchased from JBI and supplemented with 100 U/ml penicillin, 100 μg/ml streptomycin, and 10% fetal bovine serum (FBS). Medium was replaced every 3-4 days. The cells were incubated at 37° C. in a CO2 incubator. For investigation of cell proliferation rate, MTT quantification was performed. RAW 264.7 cells were plated at 2.0×10^3 cells/well in a 96-well plate and 3′-SL or 6′-SL was treated at a concentration of 0.001, 0.01, 0.1, and 1 mM. A negative control group was treated with PBS. After 5 days, the cells were incubated with 500 μg/ml MTT solution for 4 hr at 37° C. […], the absorbance at 540 nm was measured using formazan in diumsulfoxide (DMSO). The relative survival rates of groups treated with sialyllactose were calculated with reference to untreated sialyllactose group (i.e., PBS treatment group, 100% survival rate).
# [1] = system: Human keloid fibroblasts (CRL 1762); experiment: TUNEL analysis of apoptosis of keloid fibroblasts; conditions: 1 mM, 0-5 days, FIG. 3
# Procedure: (§1) Human keloid fibroblasts (CRL 1762) were purchased from ATCC. Medium has the following composition: DMEM (Dulbecco's Modified Eagle's Medium), 4 mM L-glutamine, 100 μg/ml streptomycin, 100 U/ml penicillin and 10% fetal bovine serum. The fibroblasts were incubated at 37° C. in a CO2 incubator under humid atmosphere (5% CO2, 95% air). Medium was replaced every 3-4 days.
# Using in situ cell death detection kit (TUNEL, Roche Diagnostics), apoptosis was analyzed and DNA fragmentation in keloid fibroblasts was quantified. A single layer of keloid fibroblasts was cultured directly in a tissue culture flask and then incubated with 1 mM 3′-SL, 6′-SL or PBS. Following 0, 1, 3 and 5 days, the analysis was carried out according to the manufacturer's manual.
# [2] = system: Human keloid fibroblasts (CRL 1762); experiment: XTT cell proliferation analysis of keloid fibroblasts; conditions: 1 mM, 0-5 days, compared with negative control (PBS), FIG. 2
# Procedure: as §1
# The rate of cell proliferation was measured using Roche's Cell Proliferation Kit II (XTT) system. Keloid fibroblasts (KF) were plated at 2.0×10^3 cells/well in a 96-well plate and then treated 3′-SL, 6′-SL and PBS at a concentration of 1 mM, respectively. After 0, 1, 3 and 5 days, KF was incubated with 50 μl/well of XTT (sodium 3′-[1-(phenylaminocarbonyl)-3,4-tetrazolium]-bis(4-methoxy-6-nitro) benzene sulfonic acid hydrate) reagent for 4 hr at 37° C. and the absorbance at 470 nm was measured using a microplate reader. The relative survival rates of groups treated with sialyllactose were calculated with reference to untreated sialyllactose group (i.e., excipient treatment group, 100% survival rate).
# [3] = system: Human keloid fibroblasts (CRL 1762); experiment: Cell counting of keloid fibroblasts (trypan blue); conditions: 1 mM, up to 12 days, compared with negative control (PBS), FIG. 1
# Procedure: as §1
# Keloid fibroblasts (KF) were plated at 5×10^4 cells/well in a 6-well plate. 24 hours later, KF was incubated with 1 mM 3′-sialyllactose (3′-SL), 6′-sialyllactose (6′-SL) or excipient (Phosphate buffered saline, PBS). 3′-Sialyllactose (3′-N-Acetylneuraminyl-D-lactose, 3′-Sialyl-D-lactose or α-NeuNAc-(2→3)-β-D-Gal-(1→4)-D-Glc) or 6′-sialyllactose (6′-N-Acetylneuraminyl-lactose, 6′-Sialyl-D-lactose, or α-NeuNAc-(2→6)-β-D-Gal-(1→4)-D-Glc) were purchased from Sigma-Aldrich. After 0, 1, 5, 7, 9, and 12 days, KF was collected using trypsin-EDTA and stained with trypan blue, followed by cell counting using a blood cell counter (C-Chip DHC N15, Incyto).
Compound,proliferation of RAW 264.7 cells (MTT) (RAW 264.7 cells),apoptosis of keloid fibroblasts (TUNEL) [1],proliferation of keloid fibroblasts (XTT; text says MTT analysis) [2],growth of keloid fibroblasts (cell counting) [3],apoptosis of keloid fibroblasts (TUNEL) ([1]; listed as 6′ SL)
"CC(=O)N[C@H]1[C@H]([C@H](O)[C@H](O)CO)O[C@@](O[C@H]2[C@@H](O)[C@@H](CO)O[C@@H](O[C@H]3[C@H](O)[C@@H](O)C(O)O[C@@H]3CO)[C@@H]2O)(C(=O)O)C[C@@H]1O (stereo partly drawn) [3′-SL, α-NeuNAc-(2→3)-β-D-Gal-(1→4)-D-Glc]",not affected,induced,considerably inhibited,considerably inhibited,
"CC(=O)N[C@H]1[C@H]([C@H](O)[C@H](O)CO)O[C@@](OC[C@H]2O[C@@H](O[C@H]3[C@H](O)[C@@H](O)[C@H](O)O[C@@H]3CO)[C@H](O)[C@@H](O)[C@H]2O)(C(=O)O)C[C@@H]1O [6′-SL, α-NeuNAc-(2→6)-β-D-Gal-(1→4)-D-Glc]",not affected,more significantly inhibited by 6′-SL than the 3′-SL,considerably inhibited; also recorded: more significantly inhibited by 6′-SL than the 3′-SL,considerably inhibited; also recorded: more significantly inhibited by 6′-SL than the 3′-SL,induced
